The values below come from patent US20080241919A1, “Defined media for pluripotent stem cell culture” (The Burnham Institute of Medical Research, priority 2003, published 2008).

The assay deals with human embryonic stem cells (hESCs). In words: Medium component requirement assay, hESCs on laminin/collagen-coated plates for seven days. The class given is cell-based. The conditions noted are these: media that contained only the named growth factor. The method, then:
(a) Media containing bFGF, insulin, and ascorbic acid sustain the healthy undifferentiated growth of hESCs on laminin/collagen-coated plates. Insulin (20 μg/ml), transferrin (8 μg/ml), albumin (for example, the commercial product known as AlbuMAXI) (10 mg/ml), and ascorbic acid (50 μg/ml) were added to a base medium that consisted of 100% DMEM/F-12 with 20 ng/ml bFGF, 2 mM L-alanyl-L-glutamine, 1×MEM essential amino acids solution, 1×MEM non-essential amino acids solution, and 100 μM β-mercaptoethanol. The degree of differentiation was judged by morphology of the colonies and Oct-4 expression. […] (red). […] However, if ascorbic acid was omitted from the media [D, H, L] […] White arrows in all panels delineate the edge of an hESC colony. The area delineated by the white square in [A], [E], and [I] indicates the approximate area that is visualized at higher magnification in [B, C], [F, G], and [J, K], respectively. [C], [G], and [K] is the image in [B], [F], and [J], respectively, merged with DAPI staining of their nuclei (blue).
(b) When either bFGF or insulin was omitted from the media, hESC colonies appeared to differentiate completely under the feeder- and serum-free conditions. […] The distinct growth effects of insulin and bFGF were further accentuated in media lacking ascorbic acid [C, F] (“NO Ascorbic Acid”). In the absence of ascorbic acid and in media that contained only insulin as the growth factor [C] (phase) (“NO Ascorbic Acid”), slower growth of the differentiated hESCs was observed (compare [A, B] to [C]). In ascorbic-acid-lacking media that contained bFGF as the only growth factor [F] […] White arrows in all panels delineate the edge of hESC colonies.
Having determined that substantial numbers of undifferentiated hESCs could be maintained over long periods in feeder-free environments using the bFGF-supplemented media described above, the necessity of other components in the medium to maintain hESCs in an undifferentiated state was next examined. “Knockout Serum Replacement” contains insulin, transferrin, ascorbic acid, amino acids, and AlbuMAX (a chromatographically-purified lipid-rich bovine serum albumin [BSA] with low IgG content, but nevertheless a xeno-derived product). Accordingly, whether insulin, transferrin, BSA, and ascorbic acid were essential components was assessed, in combination with bFGF, for maintaining hESCs in an undifferentiated state. The serum replacement components insulin (20 μg/ml), transferrin (8 μg/ml), albumin (AlbuMAX) (10 mg/ml), and ascorbic acid (50 μg/ml) were added to a base medium that consisted of DMEM/F-12 or KO-DMEM with bFGF (20 ng/ml), L-alanyl-L-glutamine or L-glutamine (2 mM), MEM essential amino acids solution (1×), MEM nonessential amino acids solution (1×), and β-mercaptoethanol (100 μM). To assay for the differentiation-forestalling activity of each of these components, undifferentiated hESCs were seeded on laminin/collagen-coated plates and cultivated for seven days in media containing one or more of the individual components. The degree of differentiation of the colonies was judged by defining morphology and Oct-4 expression.
When either bFGF or insulin was omitted from the media, more than 90% of the colonies appeared to differentiate completely within the first passage, as indicated by their differentiated morphology (FIG. 2b, A,B,D,E), their complete loss of Oct-4 expression, and their expression of the cell surface marker SSEA-1 (FIG. 2c, B,C). […] The different effects of insulin and bFGF were accentuated further in media lacking ascorbic acid. In the absence of ascorbic acid and in media containing only insulin, the growth of differentiated hESCs was simply slower (FIG. 2b, C). […] Although albumin and transferrin are not crucial components for sustaining the undifferentiated growth of hESCs, they might abet survival or maintenance of a normal colony shape.

With “bFGF: basic fibroblast growth factor, growth factor added to the defined hESC media”, the “cell morphology in differentiated colonies” value is “elliptically-shaped cells”.
